According to US20230000808A1, “COMPOSITIONS AND METHODS EXCLUDING OR WITH REDUCED GLUTAMINE FOR THE TREATMENT OF HEMOGLOBINOPATHIES AND THALASSEMIAS” (AXCELLA HEALTH INC., priority 2019, published 2023):

Tests used:
Format in all cases: cell-based, human
[1] = tested on: IL-6; assay: Secreted IL-6 in HLMVEC treated with TNF-α (FirePlex); details: HLMVEC + 0.5 ng/mL TNF-α, 24 h; amino acids 20x HMDB, Nac/Cit/Car 5 mM as bracketed
Protocol: (§1) Primary Human Lung Microvascular Endothelial Cells (HLMVEC; Lonza) were seeded at 6,000 cells per well in Endothelial Cell Growth Basal Medium-2 (Lonza) supplemented with Fetal Bovine Serum (FBS; Lonza), human EGF (Lonza), human VEGF (Lonza), R3-Insulin-like Growth Factor-1 (Lonza), ascorbic acid (Lonza), hydrocortisone (Lonza), human FGF-beta (Lonza), and gentamicin/amphotericin-b (Lonza) in a 96-well plate (Thermo Fisher). The cells were incubated for 45 minutes at room temperature, then incubated overnight at 37° C./5% CO2.
(§2) Following overnight incubation, cell were washed once with 150 μL of Dulbecco's phosphate buffered saline (DPBS; Gibco), and then treated with Endothelial Basal Medium MCB-131 (amino acid, glucose, sodium pyruvate, and phenol red free; US Biologicals) containing a defined custom amino acid concentration based on physiological concentrations in blood of patients with SCD (thus recapitulating observed metabolic imbalances such as the depletion of certain essential amino acids including arginine and aspartate and enrichment of certain non-essential amino acids including glutamate and asparagine), dialyzed FBS (Hyclone), human EGF (Lonza), human VEGF (Lonza), R3-Insulin-like Growth Factor-1 (Lonza), ascorbic acid (Lonza), hydrocortisone (Lonza), human FGF-beta (Lonza), and gentamicin/amphotericin-b (Lonza), glucose, 10 mM HEPES, sodium pyruvate, and sodium bicarbonate supplemented with one of the following: • a. PBS (vehicle control), • b. 0.5 ng/mL Tumor Necrosis Factor alpha (TNFα) and PBS, or; • c. 0.5 ng/mL TNF-α and amino acid treatments at 20× mean physiological concentrations in plasma based on values published in the Human Metabolome Database (HMDB) in PBS.
Supernatants were analyzed for IL-6 concentrations using a Human Cytokines FirePlex-HT Panel 1 kit (abcam) according to the manufacturer-supplied instructions. Particles were imaged on a high content imager (Molecular Devices), and results were interpolated from a standard curve with FirePlex Analysis Workbench Software (abcam) according manufacturer's recommendations.

[2] = tested on: ICAM-1; assay: ICAM-1 cell integrated intensity in HLMVEC treated with TNF-α (immunofluorescence); details: for ICAM-1 Cell Integrated Intensity Median: HLMVEC + 0.5 ng/mL TNF-α, 24 h, amino acids 20x HMDB, Nac/Cit/Car 5 mM as bracketed
Protocol: as §1, §2
(§3) After 24 hours of treatment, cells were washed once with 150 μL of DPBS (Gibco), then fixed with 4% paraformaldehyde. Following fixation, cells were stained with anti-ICAM-1 [MEM-111] (mouse IgG2a anti-human; abcam) and anti-VCAM1 [1.4C3] (mouse IgG1, K anti-human; abcam) primary antibodies at 1000×, and 100× dilutions respectively. Cells were then stained with Goat anti-Mouse IgG2a Cross-Adsorbed Secondary Antibody, Alexa Fluor 594 (Invitrogen) and Goat anti-Mouse IgG1 Cross-Adsorbed Secondary Antibody, Alexa Fluor 647 (Invitrogen) secondary antibodies. Nuclei were stained with Hoechst 3342 (Life Technologies).
(§4) Antibody binding was detected by fluorescence microscopy using a high content imager (Molecular Devices). Images were analyzed using MetaXpress 6 software to determine the integrated intensity per cell for each wavelength corresponding to ICAM-1 or VCAM-1.

[3] = tested on: VCAM-1; assay: VCAM-1 cell integrated intensity in HLMVEC treated with TNF-α (immunofluorescence); details: for VCAM-1 Cell Integrated Intensity Median: HLMVEC + 0.5 ng/mL TNF-α, 24 h, amino acids 20x HMDB, Nac/Cit/Car 5 mM as bracketed
Protocol: as §1, §2, §3, §4

[4] = tested on: HLMVEC; assay: META-rank score, composite of VCAM1, ICAM1 and IL6 in the HLMVEC model; details: HLMVEC + TNF-α; lower score = more optimal; 20x HMDB / 5 mM
Protocol: The ability of single amino acids and combinations to simultaneously impact these phenotypes was measured by a META-rank score (Tables 17 and 18). META-rank score is a composite measure that considers the optimal impact on all 3 phenotypes (e.g. decrease VCAM1, ICAM1, and IL6) in the HLMVEC model.

[5] = 0.5 ng/mL TNF-α, amino acids at 20× HMDB, 24 hours

Row | SMILES | Secreted IL6 Median [1] | ICAM-1 Cell Integrated Intensity Median [2] | VCAM-1 Cell Integrated Intensity Median [3] | Meta-Rank (Table 18) [4] | Metarank (Table 17) [4] | TNFα induced ICAM-1 expression levels in HLMVEC [2, 5] | VCAM-1 expression in HLMVEC [3, 5]
1 | CC(C)C[C@H](N)C(=O)O [Leu] | −0.491 | 0.086 | 0.125 | 20 | 7 |  | 
2 | NCC(=O)O [Gly, glycine] | −0.010 | −0.261 | −0.298 | 3 | 26 | reduced levels of ICAM-1 expression to a lesser extent | greatly reduced
3 | N[C@@H](Cc1c[nH]cn1)C(=O)O [His] | −0.198 | 0.084 | 0.109 | 18.5 | 22 |  | 
